Tests used:
[1] = test system: A549 human lung carcinoma cells; assay: MTS cell viability assay, A549 human lung carcinoma cells; format: cell-based; conditions: A549, 4 h compound incubation, MTS, read-out: IC50 Values, Cancerous Cells, Lung A549
[2] = test system: DLD-1 human colon carcinoma cells; assay: MTS cell viability assay, DLD-1 human colon carcinoma cells; format: cell-based; conditions: DLD-1, 4 h compound incubation, MTS, read-out: IC50 Values, Cancerous Cells, Colon DLD-1
[3] = test system: DU-145 human prostate carcinoma cells; assay: MTS cell viability assay, DU-145 human prostate carcinoma cells; format: cell-based; conditions: DU-145, 4 h compound incubation, MTS, read-out: IC50 Values, Cancerous Cells, Prostate DU-145
[4] = test system: K-562 human leukemia cells; assay: MTS cell viability assay, K-562 human leukemia cells; format: cell-based; conditions: K562, K-562, 4 h compound incubation, MTS, read-out: IC50 Values, Cancerous Cells, Leukemia K-562
[5] = test system: PACA-2 human pancreatic carcinoma cells; assay: MTS cell viability assay, PACA-2 human pancreatic carcinoma cells; format: cell-based; conditions: PACA-2, 4 h compound incubation, MTS, read-out: IC50 Values, Cancerous Cells, Pancreas PACA-2
[6] = test system: NCM-460 normal colon epithelial cells; assay: MTS cell viability assay, NCM-460 normal colon epithelial cells; format: cell-based; conditions: for IC50: Homo sapiens, NCM460, NCM-460, 4 h compound incubation, MTS, read-out: IC50 Values, Normal Cells, Colon NCM-460; for Fold Selectivity (NCM-460/DLD1): ratio of IC50 NCM-460 / DLD1

Row | SMILES | melting point | further results
1 | CCCCC(O)CN1CCC2(CC1)CSC1=C(O2)c2ccccc2C(=O)C1=O (centres unmarked) [Compound 162, 1′-(2-hydroxyhexyl)spiro[naphtho[2-b][1,4]oxathiine-2,4′-piperidine]-5,6-dione] |  | IC50 [1]: 6.95 µM; IC50 [2]: 1.36 µM; IC50 [3]: 2.77 µM; IC50 [4]: 1.5 µM; IC50 [5]: 1.45 µM; IC50 [6]: 2.8 µM; Fold Selectivity (NCM-460/DLD1) [6]: 2.1
2 | O=C1C(=O)c2ccccc2C2=C1SCC1(CCN(C(=O)Nc3ccc(F)cc3)CC1)O2 [Compound 85, N-(4-fluorophenyl)-5,6-dioxo-5,6-dihydro-1′H-spiro[naphtho[1,2-b][1,4]oxathiine-2,4′-piperidine]-1′-carboxamide] |  | IC50 [1]: 6.38 µM; IC50 [2]: 1.29 µM; IC50 [3]: 1.88 µM; IC50 [4]: 1.32 µM; IC50 [5]: 1.14 µM; IC50 [6]: 3.31 µM; Fold Selectivity (NCM-460/DLD1) [6]: 2.6
3 | C=CCCN1CCC2(CC1)CSC1=C(O2)c2ccccc2C(=O)C1=O [Compound 143, 1′-but-3-en-1-ylspiro[naphtho[1,2-b][1,4]oxathiine-2,4′-piperidine]-5,6-dione] |  | IC50 [1]: 7.39 µM; IC50 [2]: 2.14 µM; IC50 [3]: 4.26 µM; IC50 [4]: 3.29 µM; IC50 [5]: 2.5 µM; IC50 [6]: 6.39 µM; Fold Selectivity (NCM-460/DLD1) [6]: 3.0
4 | O=C1C(=O)c2ccccc2C2=C1SCC1(CCN(C(=O)c3ccoc3)CC1)O2 [Compound 43, 1′-(3-furoyl)spiro[naphtho[1,2-b][1,4]oxathiine-2,4′-piperidine]-5,6-dione] |  | IC50 [1]: 9.96 µM; IC50 [2]: 2.26 µM; IC50 [3]: 4.12 µM; IC50 [4]: 2.77 µM; IC50 [5]: 2.14 µM; IC50 [6]: 9.44 µM; Fold Selectivity (NCM-460/DLD1) [6]: 4.2
5 | O=C1C(=O)c2ccccc2C2=C1SCC1(CCN(C(=O)Nc3cccc(C(F)(F)F)c3)CC1)O2 [Compound 86, 5,6-dioxo-N-[3-(trifluoromethyl)phenyl]-5,6-dihydro-1′H-spiro[naphtho[1,2-b][1,4]oxathiine-2,4′-piperidine]-1′-carboxamide] |  | IC50 [1]: 3.84 µM; IC50 [2]: 1.48 µM; IC50 [3]: 1.03 µM; IC50 [4]: 2.17 µM; IC50 [5]: 1.33 µM; IC50 [6]: 10.1 µM; Fold Selectivity (NCM-460/DLD1) [6]: 6.8
6 | CN(C)c1ccc(NC(=O)N2CCC3(CC2)CSC2=C(O3)c3ccccc3C(=O)C2=O)cc1 [Compound 88, N-[4-(dimethylamino)phenyl]-5,6-dioxo-5,6-dihydro-1′H-spiro[naphtho[1,2-b][1,4]oxathiine-2,4′-piperidine]-1′-carboxamide] |  | IC50 [1]: 13.3 µM; IC50 [2]: 1.49 µM; IC50 [3]: 4.33 µM; IC50 [4]: 2.14 µM; IC50 [5]: 1.85 µM; IC50 [6]: 6.08 µM; Fold Selectivity (NCM-460/DLD1) [6]: 4.1
7 | COc1ccc2c(c1)C1=C(SCC3(CCN(C[C@@H](O)Cc4ccccc4)CC3)O1)C(=O)C2=O | 110 °C | 
8 | CC(C)(C)c1ccc(OC[C@@H](O)CN2CCC3(CC2)CSC2=C(O3)c3cc(Cl)ccc3C(=O)C2=O)cc1 | 94 to 97 °C | 
9 | COc1ccc2c(c1)C(=O)C(=O)C1=C2OC2(CCN(C[C@H](O)COc3ccc(F)cc3)CC2)CS1 | 189 to 191 °C | 
10 | O=C1C(=O)c2ccc(Br)cc2C2=C1SCC1(CCN(C[C@H](O)COc3ccc(Cl)cc3)CC1)O2 | 150 to 152 °C | 
11 | O=C1C(=O)c2ccccc2C2=C1SCC1(CCCN(C(=O)Oc3cccc(C(F)(F)F)c3)CC1)O2 (centres unmarked) | 111 to 114 °C | 
12 | O=C1C(=O)c2ccc(Cl)cc2C2=C1SCC1(CCN(C[C@H](O)Cc3ccccc3)CC1)O2 | 92 to 93 °C | 
13 | O=C1C(=O)c2ccccc2C2=C1SCC1(CCN(C[C@H](O)COc3ccc4ccccc4c3)CC1)O2 | 164 to 167 °C | 
14 | Cl.O=C1C(=O)c2ccccc2C2=C1SCC1(CCN(C(=O)CC3CCNCC3)CC1)O2 | 200 to 202 °C | 
15 | O=C1C(=O)c2ccc(N3CCCCC3)cc2C2=C1SCC1(CCNCC1)O2 | 300 °C (dec.) | 
16 | O=C1C(=O)c2ccccc2C2=C1SCC1(CCN(C(=O)c3nc4ccccc4[nH]3)CC1)O2 | 266 to 268 °C | 
17 | O=C1C(=O)c2ccccc2C2=C1SCC1(CCC3(CC1)OCCO3)O2 | 251 to 252 °C | 
18 | COC(=O)Cc1ccc(OC[C@H](O)CN2CCC3(CC2)CSC2=C(O3)c3ccccc3C(=O)C2=O)cc1 | 122 to 124 °C | 
19 | COc1ccc2c(c1)C1=C(SCC3(CCN(C[C@H](O)COc4ccc(Cl)cc4)CC3)O1)C(=O)C2=O | 109 to 110 °C | 
20 | O=C1C(=O)c2ccccc2C2=C1SCC1(CCN(CCCOc3ccc(Cl)cc3)CC1)O2 | 130 to 132 °C | 

Row | SMILES | melting point | further results
21 | O=C1C(=O)c2ccc(Br)cc2C2=C1SCC1(CCN(C[C@H](O)COc3ccc4cc(Br)ccc4c3)CC1)O2 | 104 to 105 °C | 
22 | CC(C)(C)c1ccc(OC[C@@H](O)CN2CCC(N3CCC4(CC3)CSC3=C(O4)c4ccccc4C(=O)C3=O)CC2)cc1 | 190 to 193 °C | 
23 | CC(C)(C)c1ccc(OC[C@@H](O)CN2CCC3(CC2)CSC2=C(O3)c3cc(F)ccc3C(=O)C2=O)cc1 | 114 to 116 °C | 
24 | O=C1C(=O)c2ccccc2C2=C1SCC1(CCN(CC3CCCCO3)CC1)O2 (centres unmarked) | 135 to 137 °C | 
25 | Cc1ccc(S(=O)(=O)NC(=O)N2CCC3(CC2)CSC2=C(O3)c3ccccc3C(=O)C2=O)cc1 | 153 to 158 °C | 
26 | O=C1C(=O)c2ccc(-c3ccccc3C(F)(F)F)cc2C2=C1SCC1(CCNCC1)O2 | 125 to 127 °C | 
27 | COc1ccc2c(c1)C1=C(SCC3(CCN(C(=O)Oc4cccc(C(F)(F)F)c4)CC3)O1)C(=O)C2=O | 88 to 89 °C | 
28 | O=C1C(=O)c2ccccc2C2=C1SCC1(CCN(CCCCc3ccccc3)CC1)O2 | 145 to 147 °C | 
29 | O=C1C(=O)c2ccccc2C2=C1SCC1(CCN(CCCOc3ccc(F)cc3)CC1)O2 | 164 to 165 °C | 
30 | O=C1C(=O)c2ccc(Br)cc2C2=C1SCC1(CCN(Cc3ccc(F)cc3)CC1)O2 | 210 to 211 °C | 
31 | O=C1C(=O)c2ccc(F)cc2C2=C1SCC1(CCN(C[C@H](O)Cc3ccccc3)CC1)O2 | 76 to 77 °C | 
32 | CC(C)(C)OC(=O)N1CCC2(CC1)CSC1=C(O2)c2cc(-c3cccc(C(F)(F)F)c3)ccc2C(=O)C1=O | 231 to 233 °C | 
33 | O=C1C(=O)c2ccccc2C2=C1SCC1(CCN(CC3CCCO3)CC1)O2 (centres unmarked) | 155 to 159 °C | 
34 | O=C1C(=O)c2ccccc2C2=C1SCC1(CCN(C3CCCC3O)CC1)O2 (centres unmarked) | 110 to 113 °C | 
35 | COc1ccc2c(c1)C(=O)C(=O)C1=C2OC2(CCN(C[C@@H](O)Cc3ccccc3)CC2)CS1 | 146 to 147 °C | 
36 | O=C1C(=O)c2ccc(-c3cccc(C(F)(F)F)c3)cc2C2=C1SCC1(CCNCC1)O2 | 199 to 203 °C | 
37 | O=C1C(=O)c2ccccc2C2=C1SCC1(CCCN(C(=O)c3cccc(Cl)c3)CC1)O2 (centres unmarked) | 98 to 100 °C | 
38 | O=C1C(=O)c2ccccc2C2=C1SCC1(CCN(C[C@H](O)COc3ccc4cc(Br)ccc4c3)CC1)O2 | 183 to 184 °C | 
39 | O=C1C(=O)c2ccccc2C2=C1SCC1(CCN(c3cc(Cl)ncn3)CC1)O2 | 172 to 174 °C | 
40 | O=C1C(=O)c2ccc(-c3ccccc3)cc2C2=C1SCC1(CCNCC1)O2 | 83 to 87 °C | 

More lines, main results first:

Row | melting point | SMILES | further results
41 | 59 to 60 °C | O=C1C(=O)c2ccccc2C2=C1SCC1(CCCN(C[C@@H](O)Cc3ccccc3)C1)O2 (some centres unmarked) | 
42 | 225 to 227 °C | CC(C)(C)OC(=O)N1CCC2(CC1)CSC1=C(O2)c2cc(-c3ccncc3)ccc2C(=O)C1=O | 
43 | 160 to 162 °C | O=C1C(=O)c2ccccc2C2=C1SCC1(CCN(C(=O)c3cccc([N+](=O)[O-])c3)CC1)O2 | 
44 | 188 to 190 °C | COc1ccc2c(c1)C(=O)C(=O)C1=C2OC2(CCN(C[C@@H](O)COc3ccc(C(C)(C)C)cc3)CC2)CS1 | 
45 | 299 to 300 °C | O=C1C(=O)c2ccccc2C2=C1SCC1(CCN(C(=O)c3ccc(-n4cccn4)cc3)CC1)O2 | 
46 | 196 to 197 °C | COc1ccc2c(c1)C1=C(SCC3(CCN(Cc4ccc(F)cc4)CC3)O1)C(=O)C2=O | 
47 | 223 to 228 °C | O=C1C(=O)c2ccc(-c3ccncc3)cc2C2=C1SCC1(CCNCC1)O2 | 
48 | 188 to 190 °C | COc1ccc2c(c1)C(=O)C(=O)C1=C2OC2(CCN(C[C@H](O)COc3ccc(C(C)(C)C)cc3)CC2)CS1 | 
49 | 197 to 198 °C | CC(C)N1CCC2(CC1)CSC1=C(O2)c2ccccc2C(=O)C1=O | 
50 | 110 to 115 °C | O=C1C(=O)c2ccccc2C2=C1SCC1(CCN(C(=O)/C=C/c3ccccc3Cl)CC1)O2 | 
51 | 265 to 267 °C | O=C1C(=O)c2ccc(-c3ccncc3)cc2C2=C1SCC1(CCN(C(=O)c3cccc(Cl)c3)CC1)O2 | 
52 | 223 to 225 °C | CC(C)(C)OC(=O)N1CCC2(CC1)CSC1=C(O2)c2cc(-c3ccccc3C(F)(F)F)ccc2C(=O)C1=O | 
53 | 70 to 73 °C | O=C1C(=O)c2ccccc2C2=C1SCC1(CCN(C3CCN(C(=O)Oc4cccc(C(F)(F)F)c4)CC3)CC1)O2 | 
54 | 210 to 211 °C | O=C1C(=O)c2ccc(Br)cc2C2=C1SCC1(CCN(C(=O)Oc3cccc(C(F)(F)F)c3)CC1)O2 | 
55 | 82 to 84 °C | O=C1C(=O)c2ccc(Br)cc2C2=C1SCC1(CCN(C[C@H](O)Cc3ccccc3)CC1)O2 | 
56 | 125 to 130 °C | O=C1C(=O)c2ccc(Cl)cc2C2=C1SCC1(CCN(C(=O)c3cccc(Cl)c3)CC1)O2 | 

From patent US7902354B2, “Lapachone compounds and methods of use thereof” (ArQule, Inc., priority 2006, dated 2011)
